According to BindingDB's records for doi:10.1021/acs.jmedchem.9b01392 (AstraZeneca, 2020):

Biological target: T1, Tyrosine-protein kinase JAK3 (Homo sapiens, UniProt P52333)
T1 sequence (P52333 whole entry): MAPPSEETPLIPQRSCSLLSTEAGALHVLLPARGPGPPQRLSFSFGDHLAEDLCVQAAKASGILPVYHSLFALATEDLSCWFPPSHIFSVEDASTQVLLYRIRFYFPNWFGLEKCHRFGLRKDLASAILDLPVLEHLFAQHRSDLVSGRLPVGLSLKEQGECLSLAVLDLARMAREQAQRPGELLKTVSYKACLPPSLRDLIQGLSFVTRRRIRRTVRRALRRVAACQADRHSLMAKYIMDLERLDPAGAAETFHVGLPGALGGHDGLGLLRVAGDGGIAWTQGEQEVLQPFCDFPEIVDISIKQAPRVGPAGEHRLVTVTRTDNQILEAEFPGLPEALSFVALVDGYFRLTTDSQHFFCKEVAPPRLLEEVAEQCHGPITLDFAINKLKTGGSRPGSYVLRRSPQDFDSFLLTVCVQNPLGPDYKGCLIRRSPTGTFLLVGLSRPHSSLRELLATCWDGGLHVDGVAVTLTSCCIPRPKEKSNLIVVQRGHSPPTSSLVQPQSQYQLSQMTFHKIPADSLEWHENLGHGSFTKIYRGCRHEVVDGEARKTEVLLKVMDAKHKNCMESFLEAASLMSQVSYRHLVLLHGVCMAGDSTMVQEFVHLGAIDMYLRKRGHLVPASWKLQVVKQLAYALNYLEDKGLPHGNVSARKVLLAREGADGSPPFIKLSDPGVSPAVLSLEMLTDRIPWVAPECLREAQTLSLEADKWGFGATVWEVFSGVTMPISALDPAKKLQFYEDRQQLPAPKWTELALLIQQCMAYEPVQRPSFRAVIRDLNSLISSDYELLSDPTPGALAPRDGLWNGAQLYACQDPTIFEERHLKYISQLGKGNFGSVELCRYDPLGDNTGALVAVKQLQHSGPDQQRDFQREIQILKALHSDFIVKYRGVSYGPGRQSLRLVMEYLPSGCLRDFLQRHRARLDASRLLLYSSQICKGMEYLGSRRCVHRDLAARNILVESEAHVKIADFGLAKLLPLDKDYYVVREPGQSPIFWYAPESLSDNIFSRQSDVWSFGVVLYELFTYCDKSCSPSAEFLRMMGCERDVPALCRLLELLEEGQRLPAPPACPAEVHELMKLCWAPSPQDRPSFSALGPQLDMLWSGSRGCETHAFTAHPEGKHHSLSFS
Experiment: Inhibition of JAK3 (unknown origin)

SMILES: COc1nn(C)cc1Nc1nccc(-c2c[nH]c3c(NC(=O)[C@@H](C)N4CCN(C)CC4)cccc23)n1 [(2R)-N-(3-{2-[(3-methoxy-1-methyl-1H-pyrazol-4-yl)amino]pyrimidin-4-yl}-1H-indol-7-yl)-2-(4-methylpiperazin-1-yl)propanamide]
- IC50: > 30 µM
